Reference: patent US20150087586A1, “PEGYLATED C-PEPTIDE” (Cebix, Inc., priority 2012, published 2015)

Assay: Pharmacokinetic study of unmodified C-peptide in beagle dogs, single S.C. dose, plasma ELISA
Assay type: in vivo
Details: single S.C. dose 0.5 mg/kg
Protocol: A pharmacokinetic (PK) study was conducted to determine the C-peptide PK profile with unmodified C-peptide in beagle dogs.
Two male and one female dog received S.C. the unmodified synthetic human C-peptide (0.5 mg/kg; 0.025 mL/kg) formulated in phosphate buffered saline (20 mg/mL). Dogs were bled by venipuncture and blood samples were collected at predetermined time points over 14 days. Plasma samples were obtained after centrifugation of the blood (3,000 rpm for 10 minutes) and stored at −80° C. until analysis. A CRO with Good Laboratory Practice (GLP) capabilities (MicroConstants, Inc.; San Diego, Calif.) performed the bioanalytical work. […] Results were expressed as C-peptide concentrations. For the PK analysis, the below quantitation level (BQL) was treated as zero and nominal time points were used for all calculations. PK parameters were determined by standard model independent methods based on the individual plasma concentration-time data for each animal using model 200 in WinNonlin Professional 5.2.1 (Pharsight Corp., Mountain View, Calif.).

Compound: CC(C)C[C@H](NC(=O)[C@H](C)NC(=O)[C@H](CC(C)C)NC(=O)[C@@H]1CCCN1C(=O)[C@H](CCC(N)=O)NC(=O)[C@H](CC(C)C)NC(=O)[C@H](CO)NC(=O)CNC(=O)[C@H](C)NC(=O)CNC(=O)[C@@H]1CCCN1C(=O)CNC(=O)CNC(=O)CNC(=O)[C@H](CC(C)C)NC(=O)[C@H](CCC(=O)O)NC(=O)[C@@H](NC(=O)[C@H](CCC(N)=O)NC(=O)CNC(=O)[C@@H](NC(=O)[C@H](CCC(N)=O)NC(=O)[C@H](CC(C)C)NC(=O)[C@H](CC(=O)O)NC(=O)[C@H](CCC(=O)O)NC(=O)[C@H](C)NC(=O)[C@@H](N)CCC(=O)O)C(C)C)C(C)C)C(=O)N[C@@H](CCC(=O)O)C(=O)NCC(=O)N[C@@H](CO)C(=O)N[C@@H](CC(C)C)C(=O)N[C@@H](CCC(N)=O)C(=O)O [CP-AQ]
- tolerability (clinical abnormalities) (14 days observation): well tolerated
- time until circulating levels of C-peptide were below quantitation level (BQL) (plasma): BQL within half a day
